Several values for one entry are separate records, joined by “and”; a condition that tells them apart may be missing. Identical values can stand only once. Like-named read-outs stand apart in the source and are kept apart here.
Legend:
[1] = test system: human Liver-Chip (hepatocytes and non-parenchymal cells); details: for Morphology Score: injury score 0-4, averaged, one line per replicate chip
Procedure: At least four to six brightfield images were acquired per chip for morphology analysis. […] Brightfield images were acquired across three fields of view on days 1, 3, and 7 for each cycle. Cytotoxicity classification was performed while acquiring images for both NPCs and hepatocytes. Images were then scored zero to four by blinded individuals (n = 2) based on severity of agglomeration of cell debris for both channels. The scoring matrix and representative images have been included in the supplement (Supplementary Fig. 1).
Hepatocyte layer on Chips
Non-parenchymal cell layer on Chips
Supplementary Figure 1. (a) Representative brightfield images to depict the cellular morphology score in the top channel of the Liver-Chip which contains hepatocytes. A score of 0 represents no hepatotoxicity detected, which is defined by 95-100% healthy hepatocyte morphology, hexagonal shape containing binucleated cells, clear cell cytoplasm, distinctive cell junctions and less than 5% dead cells. A score of 1 […]
cells. A score of 2 represents mild hepatotoxicity with > 70% monolayer of hepatocytes visible, evidence that cells have begun to lose their distinct cell junctions, many cells contain a granulated cytoplasm but < 30% are dead cells. A score of 3 represents moderate hepatotoxicity with severe granulation of cytoplasm and most of the cells have lost their junctions. Approximately 50% of the cells are considered dead. A score of 4 represents severe hepatotoxicity with agglomeration of cell debris and > 50% of the cells are considered dead. The pores on the membrane become visible as there is no longer a cellular monolayer. (b) Representative brightfield images to depict the cellular morphology score in the bottom channel of the Liver-Chip which contains non-parenchymal cells. A score of 0 represents no cytotoxicity detected, with an intact monolayer and <1% of the cells are dead. A score of 1 represents at least 90% of the monolayer is present and there are <10% dead cells. A score of 2 represents mild cytotoxicity with > 80% of the monolayer present and < 20% are dead cells. A score of 3 represents moderate cytotoxicity with > 50% of the monolayer present and < 50% are dead cells. A score of 4 represents severe cytotoxicity with > 50% of the cells are considered dead. (bar, 50 μm). […]

[2] = test system: human Liver-Chip (primary human hepatocytes); test: Liver-Chip albumin production in top channel effluent (ELISA); format: cell-based
From the text: Cycles 1 to 4 tested 6–8 concentrations in duplicate for each of 10–13 drugs. To determine which sampling strategy was optimal for cycles 1 to 4 (16 doses × 1 replicate, 8 × 2, 5 × 3, or 4 × 4), we generated three different “dose-response” synthetic datasets, each distorted by different noise levels (low, medium, or high). For each of these datasets, we performed curve-fitting analyses and calculated the Root Mean Square Error between the “true” and estimated IC50 parameter. […] Some drugs were also repeated across cycles (on different donors or at different concentrations) to ensure experimental robustness. However, to replicate a more typical study design likely to be carried out by scientists in the pharmaceutical industry, we created cycle 5 with 6 drugs, where each was tested in 4 concentrations in triplicate. For each cycle, chips were dosed with drug over 8 days (referred to as Day 0 through Day 7).
The drug dosing concentrations were determined from the unbound human Cmax of each drug. First, the expected fraction of drug unbound in media with 2% FBS was extrapolated from plasma binding data for each drug. Dosing concentrations were then back calculated such that the unbound fraction in media would reflect relevant multiples of unbound human Cmax (Supplementary Data 1).
On the first dosing day (Day 0), all chips were imaged using the ECHO microscope. Five hundred microliters of effluent was collected from all four reservoirs of the pod and placed in a labeled 96-well plate. After collection, all the remaining media was carefully aspirated before dosing with 3.8 mL of corresponding dosing solution. Dosing occurred on study days 0, 2, and 4 for chips flowing at 30 µL/h, and on days 0, 1, 2, 3, 4, 5, and 6 for chips flowing at 150 µL/h. Effluent collection occurred on days 1, 3, and 7.
Top channel outlet effluents were analyzed to quantify albumin and alanine transaminase (ALT) levels on days 1, 3, and 7 using sandwich ELISA kits (Abcam, Albumin ab179887, ALT ab234578) according to vendor-provided protocols. Frozen (−80 °C) effluent samples were thawed overnight at 4 °C prior to assay. The Hamilton Vantage liquid handling platform was used to manage effluent dilutions (1:500 for albumin, neat for ALT), preparation of standard curves, and addition of antibody cocktail. Absorbance at 450 nm was measured using the SynergyNeo Microplate Reader (BioTek).
All statistical analyses were conducted in R[21] (version 4.1.2) and figures were produced using the R package ggplot2[22] (version 3.3.5). The dose-response analysis (Fig. 4) was carried out using the popular drc R package developed by Ritz et al.[23] using the generalized log-logistic dose-response model. The error bars in Figs. 3 and 4, correspond to the standard errors of the mean. The circles in Fig. 3 correspond to the samples used to calculate the corresponding statistics. The analysis of significance in Fig. 3 was performed using paired t-test across different days (same donor) and unpaired t-test across different donors (same day). In Fig. 3 the number of samples used were n = 3 for donor two, and n = 4 for donor three. For both donors, the number of the freshly thawed hepatocyte samples used to estimate the corresponding log2(Fold Change) were n = 4. Finally, the analysis of significance in Fig. 3 was performed using paired t-test.

[3] = human, total plasma Cmax, cited from earlier work
[4] = lowest concentration causing an increase in cellular morphology score, donor 1
[5] = lowest concentration causing an increase in cellular morphology score, donor 2
[6] = lowest concentration causing an increase in cellular morphology score
[7] = concentration causing a 50% reduction in albumin production
[8] = ref Vorrink, S. U., Zhou, Y., Ingelman- Sundberg, M. & Lauschke, V.M. (30)
[9] = expanded drug list, lowest multiplier causing a 50% reduction in albumin production

Structure (SMILES) | Morphology Donor 1 [1, 4] | Morphology Donor 2 [1, 5] | Albumin IC50 Donor 1 [2, 7] | Albumin IC50 Donor 2 [2, 7] | Morphology Donor 1 ([1]; human) | Morphology Donor 2 ([1]; human) | further results
COC(c1ccccc1)(c1ccccc1)[C@H](Oc1nc(C)cc(C)n1)C(=O)O [Ambrisentan] | >300 multiples of the unbound human Cmax | >1000 multiples of the unbound human Cmax | >300 multiples of the unbound human Cmax | >1000 multiples of the unbound human Cmax | – | – | Morphology Donor 3 [1, 6]: >300 multiples of the unbound human Cmax; Albumin IC50 Donor 3 [2, 7]: >300 multiples of the unbound human Cmax; Human Cmax Total ([3]; ref Proctor, W.R. et al. (29)): 790 nM
C=C[C@@H]1C[C@]1(NC(=O)[C@@H]1C[C@@H](Oc2ncc(OC)c3ccc(Cl)cc23)CN1C(=O)[C@@H](NC(=O)OC(C)(C)C)C(C)(C)C)C(=O)NS(=O)(=O)C1CC1 [Asunaprevir] | – | – | – | – | 1000 unbound human Cmax multiplier | – | Morphological injury score change in words [1]: concentration and time-dependent changes; Albumin change in words ([2]; Liver-Chip effluent): concentration and time-dependent changes; Human Cmax Total ([3]; ref Schulz, M. & Schmoldt, A. (64)): 764.4 nM
CC(C(=O)O)c1ccc2oc(-c3ccc(Cl)cc3)nc2c1 (stereo not shown) [Benoxaprofen] | – | – | – | – | < 0.1 unbound human Cmax multiplier | 100 unbound human Cmax multiplier | Human Cmax Total ([3]; ref Chatsiricharoenkul, S., Niyomnaitham, Pongnarin, P., Sathirakul, K. & Kongpatanakul, S. (66)): 149100 nM
CCN(CC)C(=O)/C(C#N)=C/c1cc(O)c(O)c([N+](=O)[O-])c1 [Entacapone] | >300 multiples of the unbound human Cmax | – | >300 multiples of the unbound human Cmax | – | – | – | Human Cmax Total ([3]; ref Lombardo, F., Berellini, G. & Obach, R. S. (70)): 3300 nM
O=c1[nH]c(=O)n([C@@H]2O[C@H](CO)[C@@H](O)[C@@H]2F)cc1I [FIRU] | >300 multiples of the unbound human Cmax | >300 multiples of the unbound human Cmax | >300 multiples of the unbound human Cmax | >300 multiples of the unbound human Cmax | – | – | Human Cmax Total [3, 8]: *0.64µM
O=c1[nH]c(=O)n([C@@H]2O[C@H](CO)[C@@H](O)[C@@H]2F)cc1I [Fialuridine] | – | – | <0.1 multiples of the unbound human Cmax | <1 multiples of the unbound human Cmax | >300 multiples of the unbound human Cmax | >300 multiples of the unbound human Cmax | Human Cmax Total [3, 8]: 640 nM
CC(CCc1ccccc1)NCC(O)c1ccc(O)c(C(N)=O)c1 (stereo not shown) [Labetalol] | – | – | – | – | > 100 unbound human Cmax multiplier | 100 unbound human Cmax multiplier | Albumin IC50 Donor 1 [2, 9]: 26 unbound human Cmax multiplier; Albumin IC50 Donor 2 [2, 9]: 40 unbound human Cmax multiplier; Human Cmax Total [3, 8]: 2680 nM
O=C(NC1CCN(CCCCC2(C(=O)NCC(F)(F)F)c3ccccc3-c3ccccc32)CC1)c1ccccc1-c1ccc(C(F)(F)F)cc1 [Lomitapide] | – | – | – | – | – | – | Morphology Donor 1 ([1]; expanded drug list, lowest concentration causing an increase in morphology score, donor 1): < 0.1 unbound human Cmax multiplier; Albumin IC50 Donor 1 [2, 9]: 4 unbound human Cmax multiplier; Human Cmax Total ([3]; ref Dawson, S., Stahl, Paul, N., Barber, J. & Kenna, J. G. (71)): 1.7 nM
CCc1nn(CCCN2CCN(c3cccc(Cl)c3)CC2)c(=O)n1CCOc1ccccc1 [Nefazodone] | – | – | 140 multiples of the unbound human Cmax | – | 300 multiples of the unbound human Cmax | – | –
Cc1cc2c(s1)Nc1ccccc1N=C2N1CCN(C)CC1 [Olanzapine] | >300 multiples of the unbound human Cmax | >300 multiples of the unbound human Cmax | – | – | – | – | Morphology Score ([1]; Concentration_Day3 = 1): 2 and 1; Morphology Score ([1]; Concentration_Day3 = 3): 1.333 and 1; Morphology Score ([1]; Concentration_Day3 = 10): 2 and 1; Morphology Score ([1]; Concentration_Day3 = 30): 2; Morphology Score ([1]; Concentration_Day3 = 100): 1.667 and 1.333; Morphology Score ([1]; Concentration_Day3 = 300): 1.333 and 2; Morphology Donor 3 [1, 6]: >300 multiples of the unbound human Cmax; Human Cmax Total ([3]; ref Brunton, L. L., Hilal-Dandan, R. & Knollmann, B. C. (72)): 0.09 nM
CCc1ccc(CCOc2ccc(CC3SC(=O)NC3=O)cc2)nc1 (stereo not shown) [Pioglitazone] | – | – | 277 multiples of the unbound human Cmax | >300 multiples of the unbound human Cmax | >300 multiples of the unbound human Cmax | >300 multiples of the unbound human Cmax | Human Cmax Total ([3]; ref Xu, J. J. et al. (36)): 3000 nM
Cc1cc2c(cc1CC(=O)c1sccc1S(=O)(=O)Nc1onc(C)c1Cl)OCO2 [Sitaxsentan] | 100 multiples of the unbound human Cmax | 100 multiples of the unbound human Cmax | 4.4 multiples of the unbound human Cmax | 164 multiples of the unbound human Cmax | – | – | Morphology Donor 3 [1, 6]: 100 multiples of the unbound human Cmax; Albumin IC50 Donor 3 [2, 7]: >100 multiples of the unbound human Cmax

Reference: article PMC9727064, “Performance assessment and economic analysis of a human Liver-Chip for predictive toxicology” (Communications Medicine, 2022)
